Experimental data from PubChem BioAssay AID292 (DTP/NCI, 2004).
Values joined by “and” are separate entries in the source; they are usually repeats but may differ in a detail not shown here. Equal entries are not always repeated. Inconclusive results and toxic doses are left out.

Tested on: B6C3F1 mice, ip Sarcoma M5076, median survival T/C
Experiment: NCI In Vivo Anticancer Drug Screen. Data for tumor model Sarcoma M5076 (intraperitoneal) in B6C3F1 mice
Settings: endpoint: median survival time, schedule: Q04DX004 (ip), higher = longer survival
Procedure, shortened: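 Mice carrying the transplanted tumour received compound treatment. Survival was recorded, and each value is the treated-group measurement divided by that of the vehicle-dosed control group.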

[1] = dose: 37.5 mg/kg/injection, vehicle: saline with Tween-80
[2] = dose: 75.0 mg/kg/injection, vehicle: saline with Tween-80
[3] = dose: 150.0 mg/kg/injection, vehicle: saline with Tween-80
[4] = dose: 300.0 mg/kg/injection, vehicle: saline with Tween-80
[5] = dose: 600.0 mg/kg/injection, vehicle: saline with Tween-80
[6] = dose: 12.5 mg/kg/injection, vehicle: Klucel (hydroxypropylcellulose) (HPC)
[7] = dose: 25.0 mg/kg/injection, vehicle: Klucel (hydroxypropylcellulose) (HPC)
[8] = dose: 50.0 mg/kg/injection, vehicle: Klucel (hydroxypropylcellulose) (HPC)
[9] = dose: 100.0 mg/kg/injection, vehicle: Klucel (hydroxypropylcellulose) (HPC)
[10] = dose: 25.0 mg/kg/injection, vehicle: saline with Tween-80
[11] = dose: 50.0 mg/kg/injection, vehicle: saline with Tween-80
[12] = dose: 100.0 mg/kg/injection, vehicle: saline with Tween-80
[13] = dose: 200.0 mg/kg/injection, vehicle: saline with Tween-80
[14] = dose: 50.0 mg/kg/injection, vehicle: water
[15] = dose: 100.0 mg/kg/injection, vehicle: water
[16] = dose: 400.0 mg/kg/injection, vehicle: Klucel (hydroxypropylcellulose) (HPC)
[17] = dose: 400.0 mg/kg/injection, vehicle: saline with Tween-80
[18] = dose: 200.0 mg/kg/injection, vehicle: Klucel (hydroxypropylcellulose) (HPC)
[19] = dose: 800.0 mg/kg/injection, vehicle: Klucel (hydroxypropylcellulose) (HPC)
[20] = dose: 50.0 mg/kg/injection, vehicle: saline

Structure (SMILES): Cc1[nH]c(=O)[nH]c(=O)c1CCSSCCc1c(C)[nH]c(=O)[nH]c1=O
- T/C [1]: 90 % of control
- T/C [2]: 86 % of control
- T/C [3]: 89 % of control
- T/C [4]: 86 % of control
- T/C [5]: 90 % of control

Structure (SMILES): O=C1CCCCCC2=NC12 (configuration not stated)
- T/C (dose: 6.25 mg/kg/injection, vehicle: Klucel (hydroxypropylcellulose) (HPC)): 98 % of control
- T/C [6]: 100 % of control and 105 % of control
- T/C [7]: 105 % of control and 112 % of control
- T/C [8]: 100 % of control and 113 % of control
- T/C [9]: 103 % of control and 113 % of control

Structure (SMILES): C/C([O-])=c1\c(C)nn2ccc[n+]12
- T/C [10]: 100 % of control
- T/C [11]: 106 % of control
- T/C [12]: 103 % of control
- T/C [13]: 94 % of control

Structure (SMILES): O=C1N(Cl)C(=O)C(c2ccc(Cl)cc2)(c2ccc(Cl)cc2)N1Cl
- T/C [10]: 102 % of control
- T/C [11]: 102 % of control
- T/C [12]: 96 % of control

Structure (SMILES): CCCCCn1c(C)cc(/C=C\c2ccc3cc(C)ccc3[n+]2C)c1C
- T/C (dose: 1.0 mg/kg/injection, vehicle: saline): 103 % of control
- T/C (dose: 2.0 mg/kg/injection, vehicle: saline): 111 % of control
- T/C (dose: 4.0 mg/kg/injection, vehicle: saline): 111 % of control
- T/C (dose: 8.0 mg/kg/injection, vehicle: saline): 114 % of control

Structure (SMILES): CN(C)CCOc1cccc2c1C(=O)c1ccccc1C2=O
- T/C [14]: 90 % of control
- T/C [15]: 97 % of control

Structure (SMILES): OCCC(N1CCOCC1)C(O)(c1ccccc1)c1ccccc1 (configuration not stated)
- T/C [1]: 103 % of control
- T/C [2]: 106 % of control
- T/C [3]: 107 % of control
- T/C [4]: 100 % of control
- T/C [5]: 93 % of control

Structure (SMILES): COc1ccc(-n2c(CSc3ccc(Cl)cc3)n[nH]c2=S)cc1
- T/C [1]: 96 % of control
- T/C [2]: 101 % of control
- T/C [3]: 96 % of control
- T/C [4]: 87 % of control

Structure (SMILES): CCOC(=O)Nc1cc(NC(C)/C(=N/O)c2ccccc2)c([N+](=O)[O-])c(N)n1 (configuration not stated)
- T/C [8]: 99 % of control and 100 % of control
- T/C [9]: 109 % of control and 123 % of control
- T/C (dose: 172.8 mg/kg/injection, vehicle: Klucel (hydroxypropylcellulose) (HPC)): 107 % of control
- T/C (dose: 288.0 mg/kg/injection, vehicle: Klucel (hydroxypropylcellulose) (HPC)): 119 % of control
- T/C [16]: 156 % of control
- T/C (dose: 13333.3 mg/kg/injection, vehicle: Klucel (hydroxypropylcellulose) (HPC)): 119 % of control

Structure (SMILES): CN1CCOc2c1cnn(CCO)c2=O
- T/C [10]: 105 % of control
- T/C [11]: 96 % of control
- T/C [12]: 94 % of control
- T/C [13]: 99 % of control
- T/C [17]: 99 % of control

Structure (SMILES): O=C1c2ccccc2C(=O)c2c1cn1c2Cc2ccccc2C1
- T/C [7]: 90 % of control
- T/C (dose: 25.0 mg/kg/injection, vehicle: other): 96 % of control and 102 % of control
- T/C [8]: 91 % of control and 93 % of control
- T/C (dose: 50.0 mg/kg/injection, vehicle: other): 96 % of control and 103 % of control
- T/C [9]: 90 % of control
- T/C (dose: 100.0 mg/kg/injection, vehicle: other): 106 % of control
- T/C (dose: 150.0 mg/kg/injection, vehicle: other): 93 % of control
- T/C [18]: 88 % of control
- T/C (dose: 200.0 mg/kg/injection, vehicle: other): 97 % of control
- T/C [16]: 89 % of control and 95 % of control

Structure (SMILES): C#CCN(Cc1ccc2nc(N)[nH]c(=O)c2c1)c1ccc(C(=O)NC(CCC(=O)O)C(=O)O)cc1 (configuration not stated)
- T/C (dose: 25.0 mg/kg/injection, vehicle: water): 98 % of control
- T/C [14]: 98 % of control and 118 % of control
- T/C [15]: 120 % of control
- T/C (dose: 200.0 mg/kg/injection, vehicle: water): 162 % of control
- T/C (dose: 400.0 mg/kg/injection, vehicle: water): 152 % of control and 175 % of control

Structure (SMILES): CC[C@@]1(O)C(=O)OCc2c1cc1n(c2=O)Cc2cc3cc(O)ccc3nc2-1
- T/C (dose: 0.86 mg/kg/injection, vehicle: suspension in saline): 104 % of control
- T/C (dose: 1.44 mg/kg/injection, vehicle: suspension in saline): 109 % of control
- T/C (dose: 1.88 mg/kg/injection, vehicle: suspension in saline): 106 % of control
- T/C (dose: 2.4 mg/kg/injection, vehicle: suspension in saline): 115 % of control
- T/C (dose: 3.75 mg/kg/injection, vehicle: suspension in saline): 162 % of control
- T/C (dose: 6.67 mg/kg/injection, vehicle: suspension in saline): 116 % of control

Structure (SMILES): O=C1[C@@H]2C3C=CC([C@H]4C(=O)N(CO)C(=O)[C@@H]34)[C@@H]2C(=O)N1CO
- T/C [9]: 102 % of control
- T/C [18]: 102 % of control
- T/C [16]: 98 % of control

Structure (SMILES): CNC(=S)C#N
- T/C (dose: 12.5 mg/kg/injection, vehicle: saline + Tween-80 + alcohol): 90 % of control
- T/C (dose: 50.0 mg/kg/injection, vehicle: saline + Tween-80 + alcohol): 89 % of control

Structure (SMILES): COC(=O)N1C2CCCCC2=NN(c2ccccc2)N1C(=O)OC (configuration not stated)
- T/C [8]: 96 % of control
- T/C [9]: 101 % of control
- T/C [18]: 99 % of control
- T/C [16]: 95 % of control
- T/C [19]: 100 % of control

Structure (SMILES): Cn1c([N+](=O)[O-])cnc1CSc1ccc(C#N)cc1
- T/C [8]: 96 % of control
- T/C [9]: 93 % of control
- T/C [18]: 102 % of control
- T/C [16]: 94 % of control
- T/C [19]: 91 % of control

Structure (SMILES): Cc1c(/C=C/C(=O)O)no[n+]1[O-]
- T/C [10]: 100 % of control
- T/C [11]: 101 % of control
- T/C [12]: 101 % of control
- T/C [13]: 101 % of control
- T/C [17]: 93 % of control

Structure (SMILES): Nc1cc(=O)n(Cc2ccco2)c(=S)[nH]1
- T/C [11]: 106 % of control
- T/C [12]: 97 % of control
- T/C [13]: 106 % of control
- T/C [17]: 107 % of control
- T/C (dose: 800.0 mg/kg/injection, vehicle: saline with Tween-80): 97 % of control

Structure (SMILES): C/C(=N\NC(=S)N1CCN(c2ccccn2)CC1)c1ccccn1
- T/C [6]: 98 % of control
- T/C [7]: 103 % of control
- T/C [8]: 93 % of control

Structure (SMILES): OCCN1CCN(CC/C=C2/c3ccccc3Sc3ccc(C(F)(F)F)cc32)CC1
- T/C (dose: 6.25 mg/kg/injection, vehicle: saline): 108 % of control
- T/C (dose: 12.5 mg/kg/injection, vehicle: saline): 100 % of control
- T/C (dose: 25.0 mg/kg/injection, vehicle: saline): 108 % of control
- T/C [20]: 112 % of control

Structure (SMILES): CCOP(=S)(OCC)OC(=O)C(C)SSC (configuration not stated) (tested in a mixture with another compound)
- T/C [1]: 96 % of control
- T/C [2]: 99 % of control
- T/C [3]: 88 % of control

Structure (SMILES): CCOc1cc2c(cc1C(C)c1ccc(OC)cc1)OCO2 (configuration not stated)
- T/C (dose: 50.0 mg/kg/injection, vehicle: distilled water + alcohol): 119 % of control
- T/C (dose: 100.0 mg/kg/injection, vehicle: distilled water + alcohol): 110 % of control
- T/C (dose: 200.0 mg/kg/injection, vehicle: distilled water + alcohol): 123 % of control

Structure (SMILES): CN(C)CCCOc1nc2c(c(=O)n(C)c(=O)n2C)n1C (tested in a mixture with another compound)
- T/C [8]: 169 % of control and 182 % of control
- T/C [9]: 163 % of control and 197 % of control
- T/C [18]: 208 % of control and 267 % of control

Structure (SMILES): c1ccc2c(c1)oc1cc3c(cc12)n1nnnc1c1cccn31
- T/C (dose: 3.12 mg/kg/injection, vehicle: saline with Tween-80): 90 % of control
- T/C (dose: 6.25 mg/kg/injection, vehicle: saline with Tween-80): 95 % of control
- T/C (dose: 12.5 mg/kg/injection, vehicle: saline with Tween-80): 90 % of control
- T/C [10]: 87 % of control

Structure (SMILES): CN1C2CCC1C(Br)C(=O)C2 (configuration not stated)
- T/C [20]: 101 % of control
- T/C (dose: 100.0 mg/kg/injection, vehicle: saline): 104 % of control
- T/C (dose: 200.0 mg/kg/injection, vehicle: saline): 103 % of control
